logP, solubility and logD data for 47 compounds are collected here from the OPERA property sets (Mansouri et al. 2018).

In brackets after ≈: the same amount, converted by molar mass.

Usually logP stands for a log measure of how a compound divides between an organic and an aqueous phase. Lower therefore signals lower lipophilicity. For orientation: solubility means the concentration that dissolves in the medium under given conditions. Lower therefore signals little dissolved substance. Usually logD stands for lipophilicity at a set pH, counting ionised and neutral species. High values mean higher lipophilicity, low ones lower lipophilicity.

Turning to `C#CCOC(=O)[C@@H](C)Oc1ccc(Oc2ncc(Cl)cc2F)cc1`, the logP is 3.9.
Compound `CCSC(=O)COc1ccc(Cl)cc1C` returned a logP of 4.05.
The same measure, in the same setting: as for `CN=C(O)/C(=N/OC)c1ccccc1Oc1ccccc1`, the figure is 2.32; as for `CC1CCCCC1NC(=O)Nc1ccccc1` (stereo not drawn), 3.8.
Consider `C=CCOC1=NS(=O)(=O)c2ccccc21`, for which the solubility is 0.672 mM (≈ 150 µg/mL).
`C=C/C=C\CC1=C(C)[C@@H](OC(=O)[C@@H]2[C@@H](/C=C(\C)C(=O)OC)C2(C)C)CC1=O`: the lipophilicity (logP) was determined as 4.3.
`O=C(O)c1ccccc1C(=O)Nc1ccccc1` showed a solubility (20 °C) of 0.0829 mM (≈ 20 µg/mL).
Under “25 °C”, `NC(=O)C1(N2C(=O)c3cccc(Cl)c3C2=O)CCCCC1` showed a solubility of 0.0978 mM (≈ 30 µg/mL). That is a double-digit micromolar value.
With `COCC(=O)N(c1c(C)cccc1C)C(C)C(=O)OC` (stereo not drawn), under “24 °C”, the solubility is 36.4 mM (≈ 10200 µg/mL).
`O=C(NC(=O)c1c(F)cccc1F)Nc1cc(Cl)c(F)c(Cl)c1F` displayed a solubility (23 °C) of 5.12e-05 mM (≈ 0.0195 µg/mL).
`CCOP(=S)(OCC)Oc1ccc(=O)n(-c2ccccc2)n1` registered a logP of 3.2. Also, the solubility (20 °C) came to 0.294 mM (≈ 100 µg/mL).
As for `CCCOCCN(C(=O)CCl)c1c(CC)cccc1CC`, the logP stood at 4.08. For the same compound, the solubility (20 °C) came to 0.16 mM (≈ 50 µg/mL).
The compound `OC(c1ccc(Cl)cc1)(c1ccc(Cl)cc1)C(Cl)(Cl)Cl` came in with a solubility (25 °C) of 0.00277 mM (≈ 1.03 µg/mL).
The compound `O=C(Nc1ccccc1)Nc1ccnc(Cl)c1` registered a logP of 3.2.
Compound `COc1cc(OC)n2nc(S(=O)(=O)Nc3c(Cl)ccc(C)c3Cl)nc2n1` showed a logP of 3.08. For the same compound, the solubility (20 °C) is 0.478 mM (≈ 200 µg/mL).
For `CC(C)NC(=O)N1CC(=O)N(c2cc(Cl)cc(Cl)c2)C1=O`, the logP came to 3.
The compound `CCS(=O)(=O)c1nc2ccccn2c1S(=O)(=O)NC(=O)Nc1nc(OC)cc(OC)n1` yielded a solubility (pH 5.0, 20 °C) of 0.0381 mM (≈ 17.9 µg/mL).
Take `Fc1cccc(F)c1-c1nnc(-c2ccccc2Cl)nn1`: the logP was determined as 3.3.
In turn, `CCN(Cc1ccc(Cl)nc1)C(=C[N+](=O)[O-])NC` yielded a solubility (pH 7.0, 20 °C) of 3100 mM (≈ 840000 µg/mL).
In the case of `CC1(C)C(C=C(Cl)Cl)C1C(=O)OC(C#N)c1ccc(F)c(Oc2ccccc2)c1` (stereo not drawn), the solubility (20 °C) was determined as 6.91e-06 mM (≈ 0.003 µg/mL).
Turning to `CCOc1nc(C(Cl)(Cl)Cl)ns1`, the logP came to 3.37. The same compound yielded a solubility (25 °C) of 0.473 mM (≈ 117 µg/mL).
Turning to `CC(C)=C1OC(=O)N(c2cc(OC3CCCC3)c(Cl)cc2F)C1=O`, the solubility (25 °C) amounted to 0.000611 mM (≈ 0.216 µg/mL). In other words, the sub-micromolar range.
In turn, `COc1nc(C)nc(NC(=O)NS(=O)(=O)c2ccccc2OCCCl)n1` returned a logD (pH 5.0) of 1.1. This compound also yielded a solubility (pH 5.0, 25 °C) of 0.0796 mM (≈ 32 µg/mL).
Regarding `C[Si](Cn1cncn1)(c1ccc(F)cc1)c1ccc(F)cc1`, the solubility (pH 7.2, 20 °C) came out at 0.171 mM (≈ 54 µg/mL).
As for `FC(F)(F)C(=NOCC1OCCO1)c1ccc(Cl)cc1`, the log partition coefficient (logP) is 2.9. Further, the solubility (20 °C) stood at 0.0969 mM (≈ 30 µg/mL).
The compound `COCC(=O)N(c1c(C)cccc1C)N1CCOC1=O` registered a log partition coefficient (logP) of 0.8. Under “20 °C”, this compound had a solubility of 12.2 mM (≈ 3400 µg/mL).
Turning to `C[C@H](Oc1ccc(Oc2nc3ccc(Cl)cc3o2)cc1)C(=O)O`, the solubility (pH 5.1, 20 °C) turned out to be 0.809 mM (≈ 270 µg/mL).
In the case of `CC(C)OC(=O)C(O)(c1ccc(Br)cc1)c1ccc(Br)cc1`, the logP was determined as 5.4.
In the case of `CC1(C)OC(c2ccco2)CN1C(=O)C(Cl)Cl` (stereo not drawn), the logP stood at 2.12. The solubility (20 °C) is 0.708 mM (≈ 197 µg/mL).
Where the note is “25 °C”, `O=C(NC(=O)c1c(F)cccc1F)Nc1ccc(Cl)c(Oc2ncc(C(F)(F)F)cc2Cl)c1` registered a solubility of under 3.95e-05 mM.
Compound `CC1(C)[C@H](/C=C(\Cl)C(F)(F)F)[C@@H]1C(=O)O[C@H](C#N)c1cccc(Oc2ccccc2)c1` had a logP of 6.8.
On the same count and under the same terms, the result for `COP(=O)(OC)OC1=C(Cl)C2C=CCC12` (stereo not drawn) reads 2.32.
For `CC(C)Oc1cccc(NC(=O)c2ccccc2C(F)(F)F)c1`, under “20 °C”, the solubility is 0.0244 mM (≈ 7.88 µg/mL). This counts as double-digit micromolar.
As to `CN(C)c1nc(=O)n(C2CCCCC2)c(=O)n1C`, the solubility (25 °C) amounted to 131 mM (≈ 33000 µg/mL).
In turn, `Clc1ccc(CSC(Cn2cncn2)=Nc2ccc(Cl)cc2Cl)cc1` showed a logP of 4.94.
On to `COP(=O)(OC)SCn1c(=O)oc2cc(Cl)cnc21`, for which the logP was determined as 1.05.
In the case of `O=C(NC(=O)c1c(F)cccc1F)Nc1cc(Cl)c(OC(F)(F)C(F)F)c(Cl)c1`, the logP came out at 5.68.
As for `O=C(NC(=O)c1c(F)cccc1F)Nc1cc(Cl)c(OC(F)(F)C(F)C(F)(F)F)cc1Cl` (stereo not drawn), the logP is 5.12.
Compound `O=[n+]1[n-]c(-n2ccnc2)nc2ccc(Cl)cc21` registered a logP of 2.04. The solubility (20 °C) came out at 0.137 mM (≈ 34 µg/mL).
Regarding `CCOC(=O)CSc1nc(C(C)(C)C)nn1C(=O)N(C)C`, the lipophilicity (logP) came out at 2.69. The solubility (pH 7.0, 25 °C) is 1.38 mM (≈ 433 µg/mL).
`CC(C)(C)N(NC(=O)c1ccc(Cl)cc1)C(=O)c1ccccc1` came in with a logP of 3.22 and a solubility of 0.0363 mM (≈ 12 µg/mL).
For `CCCCC(O)(Cn1cncn1)c1ccc(Cl)cc1Cl` (stereo not drawn), the logP was found to be 3.9.
On the same count and under the same terms, as for `COC(=O)C(C)Oc1ccc(Oc2ncc(C(F)(F)F)cc2Cl)cc1` (stereo not drawn), the figure is 4.07; as for `CON=C(Cc1cccnc1)c1ccc(Cl)cc1Cl`, 3.7.
The compound `CCNc1nc(Cl)nc(N(CC)CC)n1` showed a solubility (25 °C) of 0.0871 mM (≈ 20 µg/mL).
The compound `COP(N)(=O)SC` (stereo not drawn) had a lipophilicity (logP) of -0.8.
The same measure, in the same setting: as for `COC(=O)/C=C(\C)OP(=O)(OC)OC`, the figure is 0.13.
